This is an account of results in patent publication US9889135B2, “Companion diagnostic for CDK4 inhibitors” (Memorial Sloan-Kettering Cancer Center, priority 2013, dated 2018).

Assay [1] relates to LS8817, LS141 and LS0082 cells. In words: SA-β-gal and SAHF (HP1γ) senescence staining, responder lines. The format is cell-based, human. An excerpt:
(§1) Mean percentage standard deviation). […] (A) Senescence-associated β-galactosidase and (B) HP1γ staining for senescence associated heterochromatic foci (SAHF) formation was quantitated for three or more independent experiments for each cell line. […] Representative phase contrast micrographs of cells stained for SA-β-gal or immunofluorescence staining for HP1γ in two of the cell lines before (ctrl) and after (PD) drug treatment are shown in the insets of FIGS. 2A and 2B, respectively. (C) BrdU incorporation. […] Error bars represent the standard deviation of the mean calculated from three independent trials. […] Cell number was quantitated by DAPI staining and β-galactosidase staining quantitated as a proportion of total cells. Senescence associated heterochromatic foci were quantitated after cells were fixed with 4% paraformaldehyde, permeabilized with 0.1% Triton, blocked with 2% FBS, and stained with antibodies against HP1γ (1:5000 dilution, 2MOD-1G6 Millipore). Senescent cells were identified by immunofluorescence after treatment of slides with anti-mouse secondary antibodies and quantitation of focal SAHF as a percent of total cells (Leica Upright Confocal SP5 confocal microscope). […] Cell area was measured by with Metamorph software to calculate relative area per cell.

Assay [2] has as its system LS8107, LS7785-10, LS7785-1 and LS8313 cells. In words: SA-β-gal and SAHF (HP1γ) senescence staining, non-responder lines. The format is cell-based, human. To be noted: LS7785-1, LS7785-10, LS8107 and LS8313; even at ten-fold increased concentration.
Description: as §1

Assay [3] concerns catalase in WD/DDLS cell lines. Put plainly: catalase expression by immunoblot. The assay is classed as cell-based, human. To be noted: two senescing and two non-senescing cell lines. From the text:
FIG. 22. Additional immunoblot analysis in responder and non-responder cells. […] Actin is a loading control. This experiment was repeated at least three times for each cell line.

Assay [4] deals with E2F7 in WD/DDLS cell lines. Put plainly: E2F7 levels by immunoblot. The assay is classed as cell-based, human. To be noted: 48 hours. An excerpt:
FIG. 24. […] Tubulin is a loading control. This experiment was repeated at least twice for each cell line.

Assay [5] relates to CEBPα, FABP4 and PPARγ mRNA in LS8107 and LS7785-10 cells. In words: adipocyte differentiation marker mRNA. The format is cell-based, human. Conditions: seven days. The procedure: FIG. 11. […] Cell lines were maintained in DMEM High glucose (HG) supplemented with 10% heat-inactivated fetal bovine serum. Glioma cell lines, DKMG, SNB19, DBTRG-05MG, and […], were maintained in DMEM HG supplemented with 10% fetal bovine serum and 2 mM glutamine. The MCF7 breast cancer cell line was maintained in RPMI-1640 media supplemented with 10% fetal bovine serum and 2 mM glutamine.

For assay [6], the system named is MDM2 in LS8107 and LS7785-1 cells. Put plainly: MDM2 levels by immunoblot, non-responder cells. The format is cell-based, human. To be noted: non-responders LS8107 and LS7785-1; two days. As for the experimental part: (A) Immunoblot. […] Tubulin was a loading control. (B) Immunoblot.
(§2) Antibodies against CDK4 (3F121), MDM2 (N-20 and SMP14), total RB (IF8), Cyclin A (H432), p16 (C20), p53 (DO-1 and Bp53-12), tubulin (C20) and FLAG (M2) were obtained from Santa Cruz Biotechnology, phospho-Rb 780 (#9307) from Cell Signalling, and ARF (3642) from Abeam, HAUSP (A300-033A) from Bethyl Laboratories. Treated cells were lysed with buffer composed of 50 mM Tris-HCl, pH7.4, 250 mM NaCl, 5 mM EDTA, 0.5% NP40, 2 mM PMSF, and supplemented with protease inhibitors. Eighty micrograms of protein were resolved by SDS-PAGE and transferred to PVDF membranes. Membranes were incubated overnight with antibodies (1:1000). […] Pre-treatment biopsies were collected within two weeks of the first dose and post-treatment biopsies collected after at last three weeks of treatment. Extracts were prepared in 50 mM Tris-HCl, pH7.4, 150 mM NaCl, 1 mM EDTA, 1% NP40, 0.25% sodium deoxycholate and supplemented with mini-protease inhibitor cocktail (Roche). Tumor response was assessed by reference radiologist by CT scan every six weeks for 36 weeks, and every 12 weeks thereafter.

Assay [7] has as its system LS8817 cells with enforced MDM2 expression. In words: PD0332991 response with enforced MDM2 expression. The format is cell-based, human. As for the experimental part: (A) Immunoblot. […] Tubulin was a loading control. (B) Immunoblot. […] This experiment was carried out with three different pools of transductants multiple times (*p<0.05, **p<0.01). r^2 is calculated as the best-fit correlation.
FIG. 17. […] Cells transduced with an RFP expressing virus were used as a control.
For MDM2 and Rb expression, cells were infected with a lentivirus (pLOC, Open Biosystems) encoding either MDM2, MDM2 V75A, MDM2 I440A, MDM2 C464A, MDM2 Δ254-264, MDM2 L468A, MDM2 Δ464-471, MDM2 P476A, RB, LP-RB, PSM-RB or RFP. Transduced cells were selected for in media containing 3 μg/ml blasticidin and selection was maintained throughout the experiment.

The next assay has as its system LS8817 cells. In words: PD0332991 induced senescence after knock down of p53 or INK4A products. The format is cell-based, human. As for the experimental part: LS8817 cells were infected with lentiviruses expressing either a scrambled (shSCR) or two independent p53 targeting (shp53a and shp53d2) shRNAs. […] The accumulation of senescence associated β-galactosidase (top), and the expression of MDM2 and p53 were determined by immunoblot (bottom). Coomassie staining of the gel indicated equivalent loading.

For a further assay, the system named is WD/DDLS. In words: phase II clinical trial (NCT01209598), tumor response by CT scan, RECIST. The assay is classed as in vivo, human. As for the experimental part:
FIG. 7. […] GAPDH serves as a loading control.
as §2

In the case of `CC(=O)c1c(C)c2cnc(Nc3ccc(N4CCNCC4)cn3)nc2n(C2CCCC2)c1=O` [PD0332991], the “number of SA-β-gal or SAHF positive cells” value in assay [1] (seven days after exposure) is listed as “significant increase”. Moreover, the “concentration giving a significant increase in SA-β-gal or SAHF positive cells” value in assay [1] (seven days, concentrations as low as) is listed as not above 100 nM. For the same compound, in assay [2], the “number of SA-β-gal or SAHF positive cells” value is reported as “no increase”. The catalase expression entry in assay [3] is reported as “increased”. Also, in [4] (LS8107), the E2F7 protein amount result is recorded as “did not change”. Moreover, the E2F7 protein result in [4] (LS8817, LS0082 and LS8313) is given as “induced accumulation”. Also, in assay [5], the “CEBPα, FABP4 and PPARγ mRNA, markers of differentiated adipocytes” value is “None of these markers increased”. Moreover, the MDM2 reduction result in assay [6] is reported as “not”. Moreover, in assay [7], the “cell cycle exit (phosphorylated Rb, cyclin A, BrdU incorporation)” value was “not affected” and the p53 levels entry is on record as “still reduced”. In [7] (seven days), the SA-β-gal accumulation entry is on record as “failed to accumulate”. Besides, the PD0332991 induced senescence entry with LS8817 cells (p16 and Arf knocked down) is listed as “not affected”. For the same compound, the SA-β-gal positive cells result with LS8817 cells (p53 deficient cells (two independent shRNAs)) was “still accumulated”. Besides, the “patients who performed well on the drug (RECIST)” value with WD/DDLS (of nine patients with pre- and post-treatment biopsies) is “five”. In addition, in the assay with WD/DDLS (patient 1, RECIST response, as of March 2013, 125 mg daily for 21 days, seven days of rest), the tumor size decrease entry is on record as “greater than 60%”.
